Consider one compound from patent publication US20110071142A1, “IDENTIFICATION AND USE OF SMALL MOLECULES TO MODULATE TRANSCRIPTION FACTOR FUNCTION AND TO TREAT TRANSCRIPTION FACTOR ASSOCIATED DISEASES” (BETH ISRAEL DEACONESS MEDICAL CENTER, priority 2007, published 2011).

Read-outs that look alike come from different tables or passages of the source.

The target of one test is T1, Ets-1-DNA interaction (Homo sapiens, UniProt P14921).
T1 construct: host or cells: cell-free in vitro translation, rabbit reticulocyte lysate
T1 sequence (P14921 1-441): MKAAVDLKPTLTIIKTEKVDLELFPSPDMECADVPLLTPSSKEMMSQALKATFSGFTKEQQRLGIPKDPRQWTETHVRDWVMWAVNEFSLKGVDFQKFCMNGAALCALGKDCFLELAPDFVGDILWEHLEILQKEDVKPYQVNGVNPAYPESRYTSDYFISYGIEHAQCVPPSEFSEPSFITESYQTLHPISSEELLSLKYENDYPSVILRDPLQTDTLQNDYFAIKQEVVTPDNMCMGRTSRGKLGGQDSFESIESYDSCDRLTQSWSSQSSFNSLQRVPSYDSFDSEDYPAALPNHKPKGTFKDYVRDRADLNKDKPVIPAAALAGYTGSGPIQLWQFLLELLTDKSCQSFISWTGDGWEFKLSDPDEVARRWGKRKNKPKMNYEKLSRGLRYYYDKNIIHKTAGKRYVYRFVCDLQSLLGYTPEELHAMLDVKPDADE
As to the kind of experiment: Electrophoretic mobility shift assay (EMSA) of Ets-1 DNA binding. As for the experimental part: Initially it is determined whether the identified small molecule “hits” interfere with Ets-1-DNA binding using electrophoretic mobility shift assays (EMSAs). These are performed as described previously (142). In brief, in vitro translated Ets-1 protein is generated using a rabbit reticulolysate system (Promega) and a mammalian expression plasmid encoding the Ets-1 protein. 1 μl of the in vitro translation reaction and 0.1-0.2
ng [32P]dATP-labeled double-stranded oligonucleotide probe (5,000-10,000 cpm) will be run on 4% polyacrylamide gels containing 0.5×TBE buffer. […] The small molecules identified are initially evaluated at a concentration of 1 mM, which is the concentration used in high throughput fraganomic approaches for evaluating the interaction of weak-binding small molecules (143, 144). Those small molecules that inhibit the Ets-1-DNA interaction will be re-evaluated over a concentration range of 10 μM-1 mM. Solutions containing DMSO alone will be used as a vehicle control. To ensure the small molecule is specifically targeting the Ets-1-DNA interface and not interacting non-specifically with the DNA, a non-specific promoter is included as well as a control small molecule that is not selected as a “hit” by our HTD screen. To further confirm the molecular specificity of these small molecules for targeting Ets-1, EMSAs will be performed with other members of the ETS family. Ethidium bromide displacement assays could also be used to confirm that the small molecules are not nonspecifically targeting the DNA sequence (145).
On the technique in general: In EMSA bound probe runs differently from free probe, usually more slowly.

A further test has as its system Ets-1 transactivation. Description: Reporter gene transactivation assays (transient transfection). The test is classed as cell-based, Human. Here is the method:
Several downstream targets of Ets-1 including the MCP-1 gene, PAI1, and Flt-1 (49, 142) have been identified. To further define the specificity of small molecules that inhibit DNA binding of Ets-1 in EMSAs, their ability is evaluated with regard to inhibiting transactivation of the MCP-1, PAI-1, and Flt-1 promoters by Ets-1, without affecting the basal activity of the promoter. As controls, the endothelial-specific promoters Tie1 and Tie2 are used, that have been previously shown as targets of the Ets factors NERF2 and Elf-1, but not Ets-1 or Ets-2 (142, 146). The promoters of these genes have previously been subcloned into the PGL2 luciferase reporter (Promega). Similarly, we have previously subcloned the
cDNAs encoding the ETS factors Ets-1, Ets-2, NERF2, and Elf-1 into the PCI mammalian expression plasmid.
Human embryonic kidney cells (HEK 293) are cultured as previously described (147). HEK 293 cells are kidney epithelial cells that express low basal levels of Ets-1, and are easily transfected. Cotransfections of 2×10^5 HEK 293 cells are carried out with 0.3 μg of the reporter gene construct DNA and 0.15 μg of the mammalian expression vector encoding the selected Ets factors using 4 μl LipofectAMINE (Invitrogen, San Diego, Calif.) as described (148). […]

The test system of test [1] is Ets-1 mediated gene expression. As to the kind of experiment: Ets-1 mediated gene expression in HEK293 cells. In kind it is cell-based, Human.
Another test relates to Ets-1 expression. Description: Real time PCR of IL-1 induced Ets-1 expression in HUVECs. The test is classed as cell-based, Human. The conditions noted are these: 10 μM, preincubated 1 h, IL-1 10 ng/ml, 2 hr. As for the experimental part:
(§1) SYBR Green I-based real-time PCR is carried out on an Opticon Monitor (MJ Research, Inc, Waltham, Mass.). All PCR mixtures contain PCR buffer [final concentration: 10 mM Tris-HCl (pH9.0), 50 mM KCl, 2 mM MgCl2 and 0.1% TritonX-100], 250 μM deoxy-NTP (Roche), 0.5 μM of each PCR primer, 0.5×SYBR Green I,
(§2) 5% DMSO, and 1U Taq DNA polymerase (Promega, Madison, Wis.) with 2 μl cDNA in a 25 μl final volume of reaction mix. Then, the fluorescence signal is measured immediately following incubation at 78° C. for 5 s that follows each extension step, which eliminates possible primer dimer detection. At the end of PCR cycles, a melting curve will be generated to identify specificity of the PCR product. For each run, serial dilutions of human GAPDH plasmids are used as standards for quantitative measurement of the amount of amplified cDNA. For normalization of each sample, GAPDH primers are used to measure the GAPDH cDNA levels. Cytotoxicity Evaluation of “hit” Compounds Using MTS Assay
(§3) Total RNA was isolated for real time PCR to measure Ets-1 expression levels as well as the IL-1 inducible, Ets-1
(§4) dependent MCP-1 expression levels, following stimulation for 1, 2, 4, 6 and 12 hours. IL-1 induced Ets-1 expression ˜4 fold at 2 hr, however compound #28 reduced Ets-1 induction by greater than 50% during this time frame. […]

The subject of another test is MCP-1 expression. As to the kind of experiment: Real time PCR of IL-1 inducible, Ets-1 dependent MCP-1 expression in HUVECs. The test is classed as cell-based, Human. The following applies: 10 μM, preincubated 1 h, IL-1 10 ng/ml. As for the experimental part: as §1, §2, §3, §4
In general terms: Real-time PCR tracks product formation cycle by cycle.

`Nc1ccccc1SC(C[N+](=O)[O-])c1ccc2c(c1)OCO2` (stereo not shown) [Compound 28, 2-{[1-(1,3-benzodioxol-5-yl)-2-nitroethyl]thio}aniline]: the “inhibition of Ets-1 DNA binding” value on Ets-1-DNA interaction and on Ets-1-DNA interaction (FIG. 8 legend: HUVECs preincubated with 10 μM) was “inhibits Ets-1 DNA binding” each time. On Ets-1-DNA interaction, the “inhibits the Ets-1-DNA interaction, concentration range as estimated using EMSAs” value is given as “low uM range”. Besides, the “inhibition of transactivation assays” value in the test on Ets-1 transactivation is on record as 8 fold. Also, in test [1], the “decrease of Ets-1 mediated gene expression” value was 50-60%. In the test on Ets-1 expression, the “reduction of IL-1 induced Ets-1 induction” value is recorded as “greater than 50%”. Also, the “reduction of IL-1 induced MCP-1 expression” value in the test with MCP-1 expression is reported as “greater than 40%”.
